This is an account of results in publication PMC7011955, “Synthesis and biological evaluation of certain hydrazonoindolin-2-one derivatives as new potent anti-proliferative agents” (Journal of Enzyme Inhibition and Medicinal Chemistry, 2018).

Series [1] relates to colon cancer HT-29 cell line. Put plainly: CellTiter-Glo Luminescent cell viability assay, anti-proliferative activity, HT-29. Particulars: 30 µM single concentration, quadruplicate; for inhibition at 30 µM: Homo sapiens, HT-29, read-out: Growth inhibition % HT-29. The series is classed as cell-based, human. As to the method:
(§1) The anti-proliferative activity of the title compounds 3a-e, 5a-e, 7a-c, and 10a-l towards cancer cell lines, normal cell lines, and multidrug-resistant lung cancer NCI-H69AR cell line was determined using CellTiter-Glo™ Luminescent cell viability assay according to the previously published procedures[14]^,[15].
(§2) The cancer cell growth inhibitory activity of the synthesised 25 compounds 3a-e, 5a-e, 7a-c, and 10a-l was evaluated in vitro towards three human cancer cell lines, namely lung cancer A-549, human colon cancer HT-29, and breast cancer ZR-75 cell lines using CellTiter-Glo™ Luminescent cell viability assay. Sunitinib was included in this assay as a reference drug.
(§3) The prepared hydrazonoindolin-2-ones were first evaluated at preliminary anti-proliferative assay against the three cancer cell lines in quadruplicate at a single concentration of 30 µM. The data presented as percentage growth inhibition (GI%) caused by the test compounds (Table 1).

The subject of series [2] is colon cancer HT-29 cell line. Description: CellTiter-Glo Luminescent cell viability assay, anti-proliferative activity, HT-29. Format: cell-based. Particulars: Homo sapiens, mean ± SD of four separate experiments.
Series [3] has as its system A-549, ZR-75 and HT-29 cell lines. Description: Average anti-proliferative activity over the three cancer cell lines. The series is classed as cell-based, human. The note with it: average over A-549, ZR-75, HT-29; for inhibition at 30 µM / IC50: Homo sapiens; for inhibition at 30 µM: read-out: Average growth inhibition %; for inhibition at 30 µM / Average growth inhibition %: 30 µM. As to the method: as §1, §2, §3

In series [4] the test system is breast cancer ZR-75 cell line. Put plainly: CellTiter-Glo Luminescent cell viability assay, anti-proliferative activity, ZR-75. Format: cell-based. Particulars: Homo sapiens, ZR75; 30 µM single concentration, quadruplicate; read-out: Growth inhibition % ZR-75. As to the method: as §1, §2, §3
For series [5], the system named is breast cancer ZR-75 cell line. The description is as above. The note with it: Homo sapiens, ZR75, mean ± SD of four separate experiments. The series is classed as cell-based, human.
Series [6] has as its system lung cancer A-549 cell line. Put plainly: CellTiter-Glo Luminescent cell viability assay, anti-proliferative activity, A-549. The note with it: for IC50: read-out: IC50 A-549; for inhibition at 30 µM: A549, 30 µM single concentration, quadruplicate, read-out: Growth inhibition % A-549. Format: cell-based, human. As to the method:
as §1, §2, §3

[7] abbreviates: Homo sapiens, A549, mean ± SD of four separate experiments.

Read-outs that look alike come from different tables or passages of the source.

In turn, `Cc1ccc(-c2csc(NN=C3C(=O)Nc4ccccc43)n2)cc1` [Compound 10b, 3–(2-(4–(4-Tolyl)thiazol-2-yl)hydrazono)indolin-2-one] displayed a melting point of 284 to 286 °C. In series [1], the inhibition at 30 µM came to 33.9 ± 21.2%. Further, the 50% inhibitory concentration (IC50) in series [2] is over 30 µM. In series [3], the inhibition at 30 µM is 40.1% and the concentration for half-maximal inhibition (IC50) was over 28.2 µM. Besides, the inhibition at 30 µM in series [4] was found to be 62.1 ± 10.7%. In series [5], this compound returned an IC50 of 24.6 µM. For the same compound, the IC50 in series [6] (setting [7]) is over 30 µM. For the same compound, the inhibition at 30 µM in series [6] (Homo sapiens) turned out to be 24.4 ± 14.1%. For the same compound, the IC50 in series [6] (mean ± SD of four separate experiments) is over 30 µM.
For `O=C1Nc2ccccc2C1=NNc1nc(-c2ccc(Br)cc2)cs1` [Compound 10d, 3–(2-(4–(4-Bromophenyl)thiazol-2-yl)hydrazono)indolin-2-one], the inhibition at 30 µM is 20.6 ± 26.9% in series [1], under 35% in series [3], 53.8 ± 19.2% in series [4] and 12.3 ± 11.3% in series [6] (Homo sapiens). The “Average growth inhibition %” value in series [3] is 28.9%.
On to `O=C1Nc2ccccc2C1=NNc1nc(-c2ccccc2)cs1` [Compound 10a, 3–(2-(4-Phenylthiazol-2-yl)hydrazono)indolin-2-one], for which the inhibition at 30 µM in series [1] came to 91.2 ± 8.3%; in series [3] it was 79.6%; in series [4] it was 76.9 ± 7.1%; in series [6] (Homo sapiens), 70.7 ± 5.7%. Moreover, the IC50 in series [2] was 19.4 ± 1.03 µM; in series [3], 11.1 µM; in series [5], 4.35 µM; in series [6] (setting [7]) it was 9.41 ± 1.29 µM.
For the compound `O=C1Nc2ccc(Br)cc2C1=NN=Cc1ccn[nH]1` [Compound 7c, 3-(((1H-pyrazol-5-yl)methylene)hydrazono)-5-bromoindolin-2-one], the melting point fell in the range of 264 to 266 °C. The inhibition at 30 µM in series [1] was determined as 28.8 ± 17.3%. Further, in series [3], the “Average growth inhibition %” value came out at 26.9% and the inhibition at 30 µM was under 35%. In addition, in series [4], the inhibition at 30 µM amounted to 19.2 ± 22.8%. For the same compound, the inhibition at 30 µM in series [6] (Homo sapiens) came to 32.8 ± 8.9%.
Take `O=C1Nc2ccc(Br)cc2C1=NNc1nc(-c2ccc(Br)cc2)cs1` [Compound 10l, 5-Bromo-3–(2-(4–(4-bromophenyl)thiazol-2-yl)hydrazono)indolin-2-one]: the melting point was over 300 °C. In addition, in series [1], the inhibition at 30 µM is 27.8 ± 4.3%. Further, in series [3], the “Average growth inhibition %” value is 34.4% and the inhibition at 30 µM is under 35%. The inhibition at 30 µM in series [4] turned out to be 40.9 ± 16.7%. The inhibition at 30 µM in series [6] (Homo sapiens) was -20.1 ± 5.9%.
As for `CC(=O)c1ccc(C=NN=C2C(=O)Nc3ccccc32)cc1` [Compound 3a, 3-((4-Acetylbenzylidene)hydrazono)indolin-2-one], the melting point lay within 228 to 230 °C. Further, in series [1], the inhibition at 30 µM is 53.6 ± 12.2%. Also, in series [3], the “Average growth inhibition %” value turned out to be 32.0%, the inhibition at 30 µM is under 35% and the IC50 is over 30 µM. For the same compound, the inhibition at 30 µM in series [4] was determined as 29.6 ± 24.4%. For the same compound, the inhibition at 30 µM in series [6] (Homo sapiens) stood at 12.7 ± 7.1%.
For the compound `Cc1csc(C=NN=C2C(=O)Nc3ccccc32)n1` [Compound 5a, 3-(((4-Methylthiazol-2-yl)methylene)hydrazono)indolin-2-one], the melting point was 238 to 240 °C. Further, in series [1], the inhibition at 30 µM stood at 37.9 ± 26.3%. Also, in series [3], the “Average growth inhibition %” value is on record as 27.0% and the inhibition at 30 µM was under 35%. For the same compound, the inhibition at 30 µM in series [4] stood at 40.8 ± 25.7%. The inhibition at 30 µM in series [6] (Homo sapiens) turned out to be 2.4 ± 5%.
On to `O=C1Nc2ccc(Cl)cc2C1=NNc1nc(-c2ccc(Br)cc2)cs1` [Compound 10h, 3–(2-(4–(4-Bromophenyl)thiazol-2-yl)hydrazono)-5-chloroindolin-2-one], for which the melting point is over 300 °C. Further, in series [1], the “Growth inhibition % HT-29” value was “stimulated the growth” and the inhibition at 30 µM was -8.3 ± 43.8%. In addition, the inhibition at 30 µM in series [4] worked out at 9 ± 19.2%. The inhibition at 30 µM in series [6] (Homo sapiens) was -2.6 ± 7.5%.
